# Assay results reported in ChEMBL document CHEMBL4732071, “Discovery of selective HDAC/BRD4 dual inhibitors as epigenetic probes” (Eur J Med Chem, 2021).
# Calls of active or inactive are those of the source. The rule behind the calls is not given here.
# Target: T1, Histone deacetylase 1 (Homo sapiens, UniProt Q13547)
# Test: Inhibition of HDAC1 (unknown origin) by fluorescence based assay
# Settings: not given
# T1 sequence (Q13547 whole entry): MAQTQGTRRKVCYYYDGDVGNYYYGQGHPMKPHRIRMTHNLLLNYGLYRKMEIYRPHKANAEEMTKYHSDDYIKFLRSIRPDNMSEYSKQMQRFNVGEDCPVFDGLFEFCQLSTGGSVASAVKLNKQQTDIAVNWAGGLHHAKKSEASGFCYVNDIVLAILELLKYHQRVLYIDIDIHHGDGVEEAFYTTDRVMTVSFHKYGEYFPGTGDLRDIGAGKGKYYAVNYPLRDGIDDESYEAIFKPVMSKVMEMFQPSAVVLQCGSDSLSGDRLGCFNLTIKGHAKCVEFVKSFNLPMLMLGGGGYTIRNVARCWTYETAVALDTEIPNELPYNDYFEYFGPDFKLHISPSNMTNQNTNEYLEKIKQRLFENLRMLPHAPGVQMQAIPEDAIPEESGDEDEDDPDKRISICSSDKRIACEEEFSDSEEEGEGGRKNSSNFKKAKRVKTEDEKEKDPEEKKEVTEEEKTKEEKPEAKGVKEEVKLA
row,SMILES,IC50 [nM]
1,Cn1cc(-c2ccccc2Oc2ccccc2)c2cc(C(=O)NCCCCCCC(=O)NO)[nH]c2c1=O,29.5
2,CC(C)Oc1ccc(C(C)(C)O)cc1-c1cn(C)c(=O)c2[nH]c(C(=O)NCCCCCCC(=O)NO)cc12,19.4
3,Cn1cc(-c2ccccc2Oc2ccccc2)c2cc(C(=O)NCCCCC(=O)NO)[nH]c2c1=O,142

# Target: T2, Protein deacetylase HDAC6 (Homo sapiens, UniProt Q9UBN7)
# T2 sequence (Q9UBN7 whole entry): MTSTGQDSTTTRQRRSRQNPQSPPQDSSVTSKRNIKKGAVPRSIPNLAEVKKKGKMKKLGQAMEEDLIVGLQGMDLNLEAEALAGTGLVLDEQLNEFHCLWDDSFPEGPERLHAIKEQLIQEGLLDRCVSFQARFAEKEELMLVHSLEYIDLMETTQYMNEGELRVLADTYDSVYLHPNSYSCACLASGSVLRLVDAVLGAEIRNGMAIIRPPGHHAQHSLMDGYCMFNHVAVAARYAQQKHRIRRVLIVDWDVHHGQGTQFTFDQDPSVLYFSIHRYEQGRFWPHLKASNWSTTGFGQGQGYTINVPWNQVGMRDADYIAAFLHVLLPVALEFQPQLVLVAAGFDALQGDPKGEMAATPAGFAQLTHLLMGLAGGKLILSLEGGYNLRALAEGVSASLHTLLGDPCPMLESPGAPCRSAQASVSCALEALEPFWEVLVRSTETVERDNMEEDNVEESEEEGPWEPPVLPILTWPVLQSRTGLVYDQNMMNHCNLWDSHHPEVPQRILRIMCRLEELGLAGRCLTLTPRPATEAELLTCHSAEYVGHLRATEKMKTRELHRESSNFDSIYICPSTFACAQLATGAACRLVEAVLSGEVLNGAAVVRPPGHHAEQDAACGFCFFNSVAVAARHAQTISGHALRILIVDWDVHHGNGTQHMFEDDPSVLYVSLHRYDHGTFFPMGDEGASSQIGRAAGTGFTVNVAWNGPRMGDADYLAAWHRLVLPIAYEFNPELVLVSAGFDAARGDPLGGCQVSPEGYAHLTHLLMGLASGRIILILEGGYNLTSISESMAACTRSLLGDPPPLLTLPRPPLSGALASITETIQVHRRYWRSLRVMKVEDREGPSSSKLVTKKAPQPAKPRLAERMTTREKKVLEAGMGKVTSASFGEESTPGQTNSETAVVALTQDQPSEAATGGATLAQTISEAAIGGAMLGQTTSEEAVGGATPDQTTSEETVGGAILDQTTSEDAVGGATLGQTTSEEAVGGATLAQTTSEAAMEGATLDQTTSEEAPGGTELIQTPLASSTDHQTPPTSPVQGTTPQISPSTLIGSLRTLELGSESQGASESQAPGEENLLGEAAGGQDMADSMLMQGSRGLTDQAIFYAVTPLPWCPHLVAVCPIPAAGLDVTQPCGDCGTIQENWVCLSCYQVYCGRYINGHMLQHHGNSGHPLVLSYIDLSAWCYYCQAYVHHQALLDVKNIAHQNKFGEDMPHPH
# Test: Inhibition of HDAC6 (unknown origin) by fluorescence based assay
# Settings: not given
row,SMILES,IC50 [nM]
1,Cn1cc(-c2ccccc2Oc2ccccc2)c2cc(C(=O)NCCCCCCC(=O)NO)[nH]c2c1=O,4.7
2,CC(C)Oc1ccc(C(C)(C)O)cc1-c1cn(C)c(=O)c2[nH]c(C(=O)NCCCCCCC(=O)NO)cc12,5.4
3,Cn1cc(-c2ccccc2Oc2ccccc2)c2cc(C(=O)NCCCCC(=O)NO)[nH]c2c1=O,4

# Target: T3, Bromodomain-containing protein 4 (Homo sapiens, UniProt O60885)
# Test: Inhibition of His-tagged BRD4 bromodomain 1 (unknown origin) using [Lys (5,8,12,16) Ac] H4(1-21) as substrate by fluorescence based assay
# Settings: not given
row,SMILES,IC50 [nM]
1,Cn1cc(-c2ccccc2Oc2ccccc2)c2cc(C(=O)NCCCCCCC(=O)NO)[nH]c2c1=O,38.6
2,CC(C)Oc1ccc(C(C)(C)O)cc1-c1cn(C)c(=O)c2[nH]c(C(=O)NCCCCCCC(=O)NO)cc12,29.5
3,Cn1cc(-c2ccccc2Oc2ccccc2)c2cc(C(=O)NCCCCC(=O)NO)[nH]c2c1=O,13.1

# Target: T3, Bromodomain-containing protein 4
# Test: Inhibition of His-tagged BRD4 bromodomain 2 (unknown origin) using [Lys (5,8,12,16) Ac] H4(1-21) as substrate by fluorescence based assay
# Settings: not given
row,SMILES,IC50 [nM]
1,Cn1cc(-c2ccccc2Oc2ccccc2)c2cc(C(=O)NCCCCCCC(=O)NO)[nH]c2c1=O,5.3
2,CC(C)Oc1ccc(C(C)(C)O)cc1-c1cn(C)c(=O)c2[nH]c(C(=O)NCCCCCCC(=O)NO)cc12,6
3,Cn1cc(-c2ccccc2Oc2ccccc2)c2cc(C(=O)NCCCCC(=O)NO)[nH]c2c1=O,4.8

# Tested on: MV4-11
# Test: Antiproliferative activity against human MV4-11 cells assessed as cell viability after 72 hrs by CCK8 assay
# Type: functional, cell-based
# Settings: MV4-11, 72 h
row,SMILES,IC50 [nM]
1,Cn1cc(-c2ccccc2Oc2ccccc2)c2cc(C(=O)NCCCCCCC(=O)NO)[nH]c2c1=O,180
2,CC(C)Oc1ccc(C(C)(C)O)cc1-c1cn(C)c(=O)c2[nH]c(C(=O)NCCCCCCC(=O)NO)cc12,160
3,Cn1cc(-c2ccccc2Oc2ccccc2)c2cc(C(=O)NCCCCC(=O)NO)[nH]c2c1=O,180

# Target: T4, Protein deacetylase HDAC6 (Homo sapiens) (UniProt Q9UBN7)
# T4 sequence (whole entry): T2 sequence (Q9UBN7 whole entry)
# Test: Inhibition of HDAC6 in human MV4-11 cells assessed as increase in acetylated alpha-tubulin at 1 uM incubated for 24 hrs by Western blot analysis
# Type: cell-based
# Settings: not given
row,SMILES,inhibition
1,Cn1cc(-c2ccccc2Oc2ccccc2)c2cc(C(=O)NCCCCCCC(=O)NO)[nH]c2c1=O,Active

# Target: T1, Histone deacetylase 1
# Test: Inhibition of HDAC1 in human MV4-11 cells assessed as increase in acetylated H3 at 1 uM incubated for 24 hrs by Western blot analysis
# Type: cell-based
# Settings: not given
row,SMILES,inhibition
1,Cn1cc(-c2ccccc2Oc2ccccc2)c2cc(C(=O)NCCCCCCC(=O)NO)[nH]c2c1=O,Active

# Target: T4, Protein deacetylase HDAC6 (Homo sapiens)
# Test: Inhibition of HDAC6 in human MV4-11 cells assessed as increase in acetylated alpha-tubulin at 10 to 1000 nM incubated for 24 hrs by Western blot analysis
# Type: cell-based
# Settings: dose 10-1000 nM
row,SMILES,Acetylated alpha-tubulin increase (active/not active)
1,CC(C)Oc1ccc(C(C)(C)O)cc1-c1cn(C)c(=O)c2[nH]c(C(=O)NCCCCCCC(=O)NO)cc12,Active
2,Cn1cc(-c2ccccc2Oc2ccccc2)c2cc(C(=O)NCCCCC(=O)NO)[nH]c2c1=O,inactive

# Target: T1, Histone deacetylase 1
# Test: Inhibition of HDAC1 in human MV4-11 cells assessed as increase in acetylated H3 at 10 to 1000 nM incubated for 24 hrs by Western blot analysis
# Type: cell-based
# Settings: dose 10-1000 nM
row,SMILES,inhibition
1,CC(C)Oc1ccc(C(C)(C)O)cc1-c1cn(C)c(=O)c2[nH]c(C(=O)NCCCCCCC(=O)NO)cc12,Active

# Target: T3, Bromodomain-containing protein 4
# Test: Inhibition of BRD4 in human MV4-11 cells assessed as reduction in c-Myc expression at 10 to 1000 nM measured after 24 hrs by Western blot analysis
# Type: cell-based
# Settings: dose 10-1000 nM
row,SMILES,inhibition
1,Cn1cc(-c2ccccc2Oc2ccccc2)c2cc(C(=O)NCCCCCCC(=O)NO)[nH]c2c1=O,Active
2,Cn1cc(-c2ccccc2Oc2ccccc2)c2cc(C(=O)NCCCCC(=O)NO)[nH]c2c1=O,Active

# Target: Histone deacetylase 3 (Homo sapiens, UniProt O15379)
# Test: Inhibition of HDAC3 (unknown origin) by fluorescence based assay
# Settings: not given
# Chain of Histone deacetylase 3 (O15379 whole entry): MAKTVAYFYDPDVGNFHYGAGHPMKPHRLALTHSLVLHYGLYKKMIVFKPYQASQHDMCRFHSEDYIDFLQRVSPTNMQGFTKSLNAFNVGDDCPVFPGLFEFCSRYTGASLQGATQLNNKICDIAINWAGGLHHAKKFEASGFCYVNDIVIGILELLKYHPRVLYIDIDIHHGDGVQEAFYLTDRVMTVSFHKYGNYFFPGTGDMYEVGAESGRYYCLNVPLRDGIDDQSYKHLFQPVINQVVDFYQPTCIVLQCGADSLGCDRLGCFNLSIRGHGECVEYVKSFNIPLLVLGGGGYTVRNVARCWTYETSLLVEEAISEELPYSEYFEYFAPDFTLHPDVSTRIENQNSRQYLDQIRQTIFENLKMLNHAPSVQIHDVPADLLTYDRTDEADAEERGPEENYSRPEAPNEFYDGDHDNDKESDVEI
row,SMILES,IC50 [nM]
1,CC(C)Oc1ccc(C(C)(C)O)cc1-c1cn(C)c(=O)c2[nH]c(C(=O)NCCCCCCC(=O)NO)cc12,36.4

# Target: Histone deacetylase 4 (Homo sapiens, UniProt P56524)
# Test: Inhibition of HDAC4 (unknown origin) by fluorescence based assay
# Settings: not given
# Chain of Histone deacetylase 4 (P56524 whole entry): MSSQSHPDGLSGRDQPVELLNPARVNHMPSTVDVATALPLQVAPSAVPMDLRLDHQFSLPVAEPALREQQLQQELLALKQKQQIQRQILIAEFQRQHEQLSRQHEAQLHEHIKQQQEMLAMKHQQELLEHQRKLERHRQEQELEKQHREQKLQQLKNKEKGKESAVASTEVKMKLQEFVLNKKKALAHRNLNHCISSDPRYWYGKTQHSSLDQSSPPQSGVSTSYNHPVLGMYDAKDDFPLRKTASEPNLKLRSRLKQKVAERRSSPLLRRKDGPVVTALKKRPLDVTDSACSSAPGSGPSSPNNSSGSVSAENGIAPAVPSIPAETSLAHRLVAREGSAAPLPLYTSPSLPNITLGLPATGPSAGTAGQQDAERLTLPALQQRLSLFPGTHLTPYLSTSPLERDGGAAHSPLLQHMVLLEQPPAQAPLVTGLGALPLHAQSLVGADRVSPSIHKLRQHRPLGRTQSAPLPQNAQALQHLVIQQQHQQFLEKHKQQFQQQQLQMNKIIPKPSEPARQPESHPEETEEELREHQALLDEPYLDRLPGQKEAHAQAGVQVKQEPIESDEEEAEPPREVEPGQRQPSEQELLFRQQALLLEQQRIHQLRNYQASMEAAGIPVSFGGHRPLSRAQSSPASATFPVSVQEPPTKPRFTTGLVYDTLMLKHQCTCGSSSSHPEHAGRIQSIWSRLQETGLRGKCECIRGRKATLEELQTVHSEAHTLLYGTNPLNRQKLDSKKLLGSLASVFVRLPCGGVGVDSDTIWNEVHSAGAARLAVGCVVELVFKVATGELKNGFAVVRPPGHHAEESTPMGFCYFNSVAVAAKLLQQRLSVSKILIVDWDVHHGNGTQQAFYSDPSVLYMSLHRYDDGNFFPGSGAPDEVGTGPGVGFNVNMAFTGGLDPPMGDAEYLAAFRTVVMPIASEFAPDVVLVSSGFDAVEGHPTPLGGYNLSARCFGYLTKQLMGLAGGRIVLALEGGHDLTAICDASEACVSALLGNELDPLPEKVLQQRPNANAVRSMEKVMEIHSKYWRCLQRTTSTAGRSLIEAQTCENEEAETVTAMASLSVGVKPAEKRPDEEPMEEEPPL
row,SMILES,IC50 [nM]
1,CC(C)Oc1ccc(C(C)(C)O)cc1-c1cn(C)c(=O)c2[nH]c(C(=O)NCCCCCCC(=O)NO)cc12,> 10000

# Target: T5, Histone deacetylase 8 (Homo sapiens, UniProt Q9BY41)
# T5 sequence (Q9BY41 whole entry): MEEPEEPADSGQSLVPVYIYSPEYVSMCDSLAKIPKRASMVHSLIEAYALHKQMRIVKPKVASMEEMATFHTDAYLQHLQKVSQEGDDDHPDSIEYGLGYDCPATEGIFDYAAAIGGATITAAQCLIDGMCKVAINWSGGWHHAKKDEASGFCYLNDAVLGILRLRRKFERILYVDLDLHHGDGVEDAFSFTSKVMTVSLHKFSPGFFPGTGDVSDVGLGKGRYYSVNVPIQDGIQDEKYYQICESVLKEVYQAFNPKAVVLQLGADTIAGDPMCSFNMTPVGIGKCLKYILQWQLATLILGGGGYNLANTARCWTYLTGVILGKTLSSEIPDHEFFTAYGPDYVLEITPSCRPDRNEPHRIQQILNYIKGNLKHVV
# Test: Inhibition of HDAC8 (unknown origin) by fluorescence based assay
# Settings: not given
row,SMILES,IC50 [nM]
1,CC(C)Oc1ccc(C(C)(C)O)cc1-c1cn(C)c(=O)c2[nH]c(C(=O)NCCCCCCC(=O)NO)cc12,99.6

# Target: T6, Histone deacetylase 11 (Homo sapiens, UniProt Q96DB2)
# T6 sequence (Q96DB2 whole entry): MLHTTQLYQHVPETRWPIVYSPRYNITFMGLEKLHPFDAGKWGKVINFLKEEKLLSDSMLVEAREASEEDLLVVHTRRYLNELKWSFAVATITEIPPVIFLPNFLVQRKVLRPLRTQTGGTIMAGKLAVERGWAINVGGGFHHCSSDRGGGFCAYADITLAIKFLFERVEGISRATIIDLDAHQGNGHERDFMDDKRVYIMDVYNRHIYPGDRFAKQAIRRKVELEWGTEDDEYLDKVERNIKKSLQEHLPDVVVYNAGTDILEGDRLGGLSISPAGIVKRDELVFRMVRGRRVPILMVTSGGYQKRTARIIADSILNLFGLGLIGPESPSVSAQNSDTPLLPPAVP
# Test: Inhibition of HDAC11 (unknown origin) by fluorescence based assay
# Settings: not given
row,SMILES,IC50 [nM]
1,CC(C)Oc1ccc(C(C)(C)O)cc1-c1cn(C)c(=O)c2[nH]c(C(=O)NCCCCCCC(=O)NO)cc12,> 10000

# Target: T3, Bromodomain-containing protein 4
# Test: Inhibition of BRD4 in human MV4-11 cells assessed as reduction in c-Myc expression measured after 24 hrs by Western blot analysis
# Type: cell-based
# Settings: dose 10-1000 nM
row,SMILES,inhibition
1,CC(C)Oc1ccc(C(C)(C)O)cc1-c1cn(C)c(=O)c2[nH]c(C(=O)NCCCCCCC(=O)NO)cc12,Active

# Tested on: MV4-11
# Test: Induction of apoptosis in human MV4-11 cells at 1000 nM after 24 hrs by flow cytometry relative to control
# Type: functional
# Settings: not given
row,SMILES,Activity [%]
1,CC(C)Oc1ccc(C(C)(C)O)cc1-c1cn(C)c(=O)c2[nH]c(C(=O)NCCCCCCC(=O)NO)cc12,53.73
